Test results: patent publication US11021472B2, “Use of compounds comprising two or more hydrophobic domains and a hydrophilic domain comprising PEG moieties for stabilization of a cell” (Roche Diagnostics Operations, Inc., priority 2013, dated 2021)
Several values for one entry are separate records, joined by “and”; a condition that tells them apart may be missing. Equal entries are not always repeated.

Experiments:
NIH 3T3 = test: Labelling (staining) of cells with labelled molecules; format: cell-based
Excerpt: (§1) As shown in the examples, a compound for use according to the invention, wherein the compound comprises a label moiety, is contacted with a cell. As labelling is preferably done with viable or potentially viable cells, the cells are typically present in an aqueous solution, which is preferably buffered and/or contains nutrients, e.g. the cells are suspended in PBS. The labeled compound for use according to the invention may be added to the cells, e.g. in form of a solution, e.g. as aqueous solution by methods known in the art, as pipetting.

Epithelial cells = test: as above; format: cell-based
Excerpt: as §1

CHO = test: as above; format: cell-based
Excerpt: as §1

U937 = test: as above; format: cell-based
Excerpt: as §1

COS 7 = test: as above; format: cell-based
Excerpt: as §1

MDA-MB468 = test: as above; format: cell-based
Excerpt: as §1

Hela = test: as above; format: cell-based
Excerpt: as §1

WBCs [1] = test: as above; format: cell-based
Excerpt: as §1

Jurkats = test: as above; format: cell-based
Excerpt: as §1

WBC [2] = settings: Example 5 B; centrifugation 10 min, 300×g
WBC [3] = test: WBC recovery rate after centrifugation (stabilization of cells); format: cell-based, human; settings: Centrifugation 10 min, 300×g
Procedure: (§2) Centrifugation characteristics: 10 min, 300×g.
as §2
The respective left, middle and right columns per assay represent different Experimenters 1, 2 and 3. […] Centrifugation characteristics: 10 min, 300×g. Molecule: Cholesteryl-TEG-Cholesteryl-TEG-(SpacerC18)7-Fluos-Biotin-TEG.
(§3) Following molecules were tested: 1234: 5′-(Cholesteryl-TEG)2-Spacer C18-dT-Biotin-TEG-3′; 1248: 3′-(Cholesteryl-TEG)2-PEG2000-Fluos-Biotin-TEG-5′ INVERS; 1254: 3′-(Cholesteryl-TEG)2-SpacerC18-Fluos-Biotin-TEG-5′ INVERS; 1255: 3′-(Myristic acid)2-PEG2000-dT-Biotin-TEG-5′ INVERS. […] Centrifugation characteristics: 20 min, 300×g. Respective left column: 10 min incubation with molecule. Respective middle column: 1 h min incubation with molecule. Respective right column: 2 h incubation with molecule.
Following molecules were tested: 1255: 3′-(Myristic acid)2-PEG2000-dT-Biotin-TEG-5′ INVERS; 1234: 5′-(Cholesteryl-TEG)2-Spacer C18-dT-Biotin-TEG-3′; 1248: 3′-(Cholesteryl-TEG)2-PEG2000-Fluos-Biotin-TEG-5′ INVERS; 1254: 3′-(Cholesteryl-TEG)2-SpacerC18-Fluos-Biotin-TEG-5′ INVERS. […] Centrifugation characteristics: 20 min, 500×g. Respective left column: 10 min incubation with molecule. Respective middle column: 1 h min incubation with molecule. Respective right column: 3 h incubation with molecule.
as §3, with “tested: 1255: 3′-(Myristic acid)2-PEG2000-dT-Biotin-TEG-5′ INVERS;” for “tested:”, “3′-(Cholesteryl-TEG)2-SpacerC18-Fluos-Biotin-TEG-5′” for “3′-(Cholesteryl-TEG)2-SpacerC18-Fluos-Biotin-TEG-5′ INVERS; 1255: 3′-(Myristic acid)2-PEG2000-dT-Biotin-TEG-5′”, “1000×g.” for “300×g.”
Stabilization is typically determined on a population of cells, e.g. 2, 10, 100 or more cells, and the respective mean viability of the cell populations are compared. […] Viability may be determined by determining cell morphology, cell viability and/or cell recovery. Methods for determining cell morphology, cell viability and cell recovery are known in the art. […] For determining cell morphology, visual inspection by microscopy may be performed. For determining cell viability, a cell viability test using WST-1 proliferation kit (RAS) may be performed.

WBCs [4] = test: Recovery rate of cells after immobilization on streptavidin (SA) plate; format: cell-based; settings: WBCs, 100 nmol/10e6 cells
Procedure: X=hydrophobic moiety, […]=fluorescein In the following experiment, the recovery rate of cells was determined.

| Compound | staining of cells by labelled molecule (NIH 3T3) | staining of cells by labelled molecule (Epithelial cells) | staining of cells by labelled molecule (CHO) | staining of cells by labelled molecule (U937) | staining of cells by labelled molecule (COS 7) | staining of cells by labelled molecule (MDA-MB468) | staining of cells by labelled molecule (Hela) | staining of cells by labelled molecule (WBCs [1]) | staining of cells by labelled molecule (Jurkats) | time within which cell immobilization is enabled (WBC [2]) | WBC recovery rate after centrifugation: dependence on molecule concentration (WBC [3]) | Recovery Rate (WBCs [4]; listed as Biotin-PEG-Lysin-(C18)2) | Recovery Rate (WBCs [4]; may be to due 1.5-2 h exposure of plate) |
| --- | --- | --- | --- | --- | --- | --- | --- | --- | --- | --- | --- | --- | --- |
| 5′-CholesterylTEG-CholesterylTEG-PEG2000-Fluos-3′ [BMO 29.891133] | ✓ | ✓ | ✓ | ✓ | ✓ | ✓ | ✓ | 50-200 ms) ✓ | ✓ | – | – | – | – |
| CCCCCCCCCCCCCCCCCCN1C(=CC=CC2=[N+](CCCCCCCCCCCCCCCCCC)c3ccccc3C2(C)C)C(C)(C)c2ccccc21.[O-][Cl+3]([O-])([O-])[O-] [1,1′-Dioctadecyl-3,3,3′,3′-tetramethylindocarbocyanin perchlorate] | ✓* | ✓ | ✓ | ✓ | ✓ | ✓ | ✓ | ✓ not all | ✓ | – | – | – | – |
| CCCCC/C=C\C/C=C\CCCCCCCCN1C(=CC=CC2=[N+](CCCCCCCC/C=C\C/C=C\CCCCC)c3ccccc3C2(C)C)C(C)(C)c2ccccc21.[O-][Cl+3]([O-])([O-])[O-] [Linol, 1,1′-dilinoleyl-3,3,3′,3′-tetramethylindocarbocyanine perchlorate] | ✓ | ✓ | ✓ | ✓ | ✓ | ✓ | ✓ | 20-50 ms) ✓ | ✓ | – | – | – | – |
| CCCCCCCCCCCCCCCCCCCCCC[N+]1=C(/C=C/C=C2/N(CCCCCCCCCCCCCC)c3ccccc3C2(C)C)C(C)(C)c2ccccc21.[I-] [PKH26] | ✓ | ✓ not all | ✓ | ✓ | ✓ | ✓ | ✓* | not stained) ✓ | ✓ | – | – | – | – |
| CCCCCCCCCCCCCCCC(=O)OC[C@H](COP(=O)(O)OCCNC(=O)CCc1ccc2n1[B-](F)(F)[N+]1=C(C)C=C(C)C1=C2)OC(=O)CCCCCCCCCCCCCCC.CCN(CC)CC [Phosphatidylethanolamine, N-(4,4-difluoro-5,7-dimethyl-4-bora-3a,4a-diaza-s-indacene-3-propionyl)-1,2-dihexadecanoyl-sn-glycero-3-phosphoethanolamine, triethylammonium salt] | – | – | – | – | – | – | x/✓ very weak | – | – | – | – | – | – |
| CCCCCCCCCCCCC/C=C/[C@@H](O)[C@H](COP(=O)([O-])OCC[N+](C)(C)C)NC(=O)CCCCc1ccc2n1[B-](F)(F)[N+]1=C(C)C=C(C)C1=C2 [Sphingomyelin, N-(4,4-difluoro-5,7-dimethyl-4-bora-3a,4a-diaza-s-indacene-3-pentanoyl)sphingosyl phosphocholine] | – | ✓ | x very weak | – | – | – | ✓ | (x)- very bad | – | – | – | – | – |
| Biotin-PEG-Lys-(C18)2 | – | – | – | – | – | – | – | – | – | ≤ 3.5 h | The higher the molecule concentration, the higher the cell recovery rate after centrifugation | 83.9% and 75.0% and 66.0% | 33.0% |
